# From patent publication US8614237B2, “Benzofuran-4,5-diones as selective peptide deformylase inhibitors” (Sloan-Kettering Institute for Cancer Research, priority 2009, dated 2013)
# Assays:
# [1] = tested on: EcPDF
# Description: Head of the field: EcPDF %I 10uM
# (§2) Specificity profiling of the derivatives of benzofuran-4,5-diones.
# Where the first naming reader finds the target: head: EcPDF %I 10uM
# [2] = tested on: MMP-1; assay: MMP-1 %I 100uM
# Description: Table printed on a drawing sheet, Figure 5
# Head of the field: MMP-1 %I 100uM
# Footnotes: -26 124 % inhibition
# The patent's description of the figure: FIG. 5.
# Where the first naming reader finds the target: head: MMP-1 %I 100uM
# [3] = tested on: ALL3 cells; assay: Cytotoxicity in vitro toward ALL3 cells; type: cell-based; conditions: Homo sapiens
# Excerpt: (§1) The cell lines HL-60 (human acute promyelocytic leukemia), Jurkat (human acute T cell leukemia), Molt3 (acute lymphoblastic leukemia), CWR22 (prostate carcinoma), HEK293 (human embryonic kidney), K562 (human chronic myeloid leukemia lymphoblasts), Y79 (human retinoblastoma) were obtained from the ATCC, and cultured following ATCC recommendations. The cell line NCEB-1 (human non-hodgkin lymphoma) was obtained from Dr. O'Connor (Sloan-Kettering Institute). The cell line HL-60/RV+ (a P-glycoprotein-overexpressing multi-drug resistant HL-60 variant selected by continuous exposure to vincristine) was described elsewhere (Weisburg et al., J. Biol. Chem. 1999, 274, 10877-10888). The cell line ALL-3 (acute lymphoblastic leukemia isolated from a patient treated at MSKCC and characterized as Philadelphia chromosome positive) was obtained from Dr. Mark Frattini (MSKCC). The assay used for the cytotoxicity studies is based on the dye resazurin and commercially sold as Alamar Blue (O'Brien et al., Eur. J. Biochem. 2000, 267, 5421-5426). Cells were added in 45 μL medium to the pre-plated compounds in 5 μL of 1% DMSO (v/v). After incubation for 72 hours, 5 μL of Alamar Blue was added.
# [4] = In vivo toxicity of benzofuran-4,5-diones; conditions: i.p. twice a day for four days, 1 to 10 mg/kg, monitored 14 days
# Description: Lead compound SKC-BF-13 and another newly synthesized derivative SKC-BF-02 were selected in order to assess the in vivo toxicity of benzofuran-4,5-diones. Three mice per group were treated with BF-13 at three doses (i.e., 1, 5 and 10 mg/kg) or with SKC-BF-02 at two doses (i.e., 1 and 10 mg/kg). A control group of two mice were treated with the vehicle (i.e., 20% DMSO v/v). Mice were treated twice a day for four days via intraperitoneal administration. Their weight was monitored along with any other signs of toxicity for fourteen days.
# ICR/SCID male mice about three weeks old were used in this study. Three mice per group were treated with BF-13 at three doses (i.e., 1, 5 and 10 mg/kg) or with SKC-BF-02 at two doses (i.e., 1 and 10 mg/kg). A control group of two mice were treated with the vehicle (20% DMSO v/v). Mice were treated twice a day for four days via intraperitoneal administration. Their weight was monitored as well as any other sign of toxicity for 14 days.
# SKI 396848 (SKC-BF-12) and SKI 396840 (SKC-BF-02) were synthesized during the first round of exploratory chemistry to assess the in vivo toxicity of benzofuran-4,5-diones (as shown in FIG. 8). Three ICR/SCID male mice per group were treated with SKI 396848 at three doses: 1, 5 and 10 mg/kg or with SKI 396840 at two doses: 1 and 10 mg/kg. A control group of two mice was treated with the vehicle (20% DMSO v/v). Mice were treated twice a day for four days i.p. Their weight was monitored as well as any other sign of toxicity for 14 days. One treated mouse per group was evaluated by a pathologist.
# [5] = tested on: ALL-3 cells; assay: In vivo efficacy, mouse xenograft model using ALL-3 cells; conditions: 1 and 3 mg/kg i.p. twice a week for two weeks
# Description: The in vivo efficacy of SKI 396848 (SKC-BF-12) was assessed in a mouse xenograft model using ALL-3 cells isolated from a patient with acute lymphoblastic leukemia refractory to imatinib. Three mice per group were treated at two doses: 1 and 3 mg/kg. A control group of three mice was treated with the vehicle (20% DMSO v/v). Mice were treated twice a week for two weeks i.p. Their weight was monitored as well as any other sign of toxicity for 14 days. […] Nonetheless, the observed difference between the treated groups and the control group was significant, and our study provides a solid proof of concept for the use of benzofuran-4,5-dione based HsPDF inhibitors as novel antitumor agents in vivo.
# [6] = tested on: panel of eight cancer cell lines; assay: Cytotoxicity profiling of 26 second generation derivatives (Alamar Blue viability assay, nuclei count); type: cell-based, human
# Description: Cytotoxicity profiling for the 26 newly synthesized benzofuran-4,5-diones derivatives was performed on a panel of eight cancer cell lines.
# The cell lines HL-60 (human acute promyelocytic leukemia), Jurkat (human acute T cell leukemia), Molt3 (acute lymphoblastic leukemia), CWR22 (prostate carcinoma), K562 (human chronic myeloid leukemia lymphoblasts), and Y79 (human retinoblastoma) were obtained from the ATCC, and cultured following ATCC recommendations. The cell line HL-60/RV+ (a P-glycoprotein-overexpressing multi-drug resistant HL-60 variant selected by continuous exposure to vincristine) was described elsewhere (Weisburg J H, Roepe P D, Dzekunov S, Scheinberg D A: Intracellular pH and multidrug resistance regulate complement-mediated cytotoxicity of nucleated human cells. J Biol Chem 1999; 274:10877-10888). The cell line ALL-3 (acute lymphoblastic leukemia isolated from a patient treated at MSKCC and characterized as Philadelphia chromosome positive) was obtained from Dr. Mark Frattini (MSKCC). The viability assay we used in this study is based on the dye resazurin and commercially sold as Alamar Blue (O'Brien J, Wilson I, Orton T, Pognan F: Investigation of the Alamar Blue (resazurin) fluorescent dye for the assessment of mammalian cell cytotoxicity. Eur J Biochem 2000; 267:5421-5426). Cells were added in 45 μL medium to the pre-plated compounds in 5 μL of 1% DMSO (v/v). After 72 h incubation was added 5 μL Alamar Blue. […] Plates were then fixed and nuclei were stained using Hoechst for the nuclear count proliferation assay. Imaging for Hoechst staining of nuclei count were acquired with an IN Cell Analyzer 2000 epifluorescence automated microscope ([…]) (GE Healthcare, Piscataway, N.J.) equipped with a 4× objective, using D360/40 excitation filter (360 nm excitation peak; +/−40 nm bandpass), HQ535/50 emission filter (535 nm emission peak; +/−50 nm bandpass) and Q505LP dichroic, and exposing fields for 200 milliseconds in the blue channel. Image analysis was conducted with the IN Cell Developer 1.7 software (GE Healthcare) using custom-developed analysis modules. The analysis module used for nuclei count performs object segmentation in the blue channel to automatically define and count the number of nuclei. Data is reported as the sum of imaged nuclei.
# In addition of the Alamar Blue viability assay readout, for the adherent cell lines of this panel (CWR22 and Meso47) we performed a direct nuclei count to assess the effect of the novel derivatives on cell proliferation.
# [7] = Aqueous solubility limit by laser nephelometry; type: physicochemical; conditions: aqueous solution (composition not stated), kinetic from dmso stock, upper limit 10 μM
# Excerpt: We assessed the aqueous solubility limit for the 26 novel benzofuran-4,5-diones using laser nephelometry. […] Data were compared to standards of known turbidity to assess the solubility limit for each compound.
# [8] = tested on: EcPDF; remark: listed apart in the source
# Description: Head of the field: EcPDF %I 100uM
# as §2
# Where the first naming reader finds the target: head: EcPDF %I 100uM
# [9] = tested on: Jurkat tumors; assay: In vivo study, mouse xenograft with Jurkat tumors; conditions: 5, 15 and 30 mg/kg i.p. twice a week for three weeks
# Description: In this study, higher doses could be achieved by injecting the drug in a small volume (100 μL) of 100% DMSO (v/v). Three mice per group were treated at three doses: 5, 15 and 30 mg/kg. A control group of three mice was treated with the vehicle (100% DMSO v/v). Mice were treated i.p. twice a week for three weeks. Unfortunately, a large variability in the growth of the Jurkat tumors caused data interpretation to be difficult.
# [10] = tested on: Jurkat cell line; assay: Cytotoxicity in vitro toward Jurkat cell line; type: cell-based; conditions: Homo sapiens, acute T-cell leukemia
# Excerpt: as §1
# [11] = tested on: panel of cancer cell lines; assay: Cytotoxicity assay (Alamar Blue), primary hits and first generation derivatives; type: cell-based, human; conditions: Homo sapiens; first generation, panel of nine cancer cell lines; SKC-BF-13: on four cell lines; read-out: cytotoxicity IC50, Alamar Blue viability assay
# Description: Cytotoxicity assays were performed in order to profile the thirty-three newly synthesized benzofuran-4,5-dione derivatives on a panel of nine cancer cell lines. A heat map summarizes the calculated IC50s ([…]). Twelve out of thirteen derivatives potent toward HsPDF were also cytotoxic toward several cancer cell lines (FIG. 7).
# as §1, with “Cells were added in 45 μL medium to the pre-plated compounds in 5 μL of 1% DMSO (v/v). After incubation for 72 hours, 5 μL of Alamar Blue was added.” left out
# [12] = target: T1, HsPDF (Homo sapiens, UniProt Q9HBH1); assay: FP binding assay (fluorescence polarization, probe SKI 267088), specificity profiling and dose response; conditions: dose response, 12 point doubling dilutions, upper limit 100 μM
# T1 construct: A 63 amino acid N-terminally truncated human peptide deformylase (HsPDF); 6His (C); made in house; host or cells: E. coli BL21 (DE3), co-transformed with the GroES/EL chaperone plasmid
# T1 sequence (Q9HBH1 64-243 limits assumed): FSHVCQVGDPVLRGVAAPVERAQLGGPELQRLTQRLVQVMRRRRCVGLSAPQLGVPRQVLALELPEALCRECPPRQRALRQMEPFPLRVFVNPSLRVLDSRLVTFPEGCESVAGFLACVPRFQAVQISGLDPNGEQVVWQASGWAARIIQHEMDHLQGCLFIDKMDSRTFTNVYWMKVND
# Description: Specificity profiling was performed on the newly synthesized benzofuran-4,5-diones using the aforementioned FP profiling method (Antczak et al., J. Biomol. Screen 2008, 13, 285-294).
# Compounds or high/low controls were added to the wells at a volume of 2 μL. […] High controls consisted of 1% DMSO (v/v). MBP-HsPDF or the metalloprotease to be tested was diluted in the assay buffer (25 mM Hepes, 50 mM NaCl, 0.005% Tween 20, pH 7.5), and 10 μL where added to the 384-well microplates (Low Volume Round Bottom NBS Treated, Corning) to achieve a final concentration of 1 μM. After addition of MBP-HsPDF to the tested compounds, the 384-well microplates were preincubated for one hour at room temperature. Then 8 μL of the probe SKI 267088 in solution in assay buffer was added to the wells at a final concentration of 5 nM. After one hour incubation at room temperature, the fluorescence polarization was read using the Amersham LEADseeker™ Multimodality Imaging System equipped with Cy3 excitation/emission filters and Cy3 FP epi-mirror. Quench tests were performed in duplicate by measuring the fluorescence polarization of wells containing the probe, pre- and post-addition of the compounds at 100 μM.
# In each assay, the signal inhibition induced by the compounds was expressed as a percentage compared to high and low controls located on the same plate, as defined as % Inhibition=(high control average−read value)/(high control average−low control average)×100. The dose response was assessed in duplicate and using 12 point doubling dilutions with 100 μM compound concentration as the upper limit. The dose response curve for each set of data was fitted separately, and the two IC50 values obtained were averaged.
solubility [7] [µM],SMILES,EcPDF %I 10uM [1] [%I],MMP-1 %I 100uM [2] [%I],IC50 [3] [µM],signs of toxicity in vivo (weight and other signs) [4],tumor progression in ALL-3 xenograft [5],"activity against the cell lines of the panel, second generation [6]",EcPDF %I 100uM [8] [%I],body weight of treated groups [9],IC50 [10] [µM],IC50 [11] [µM],IC50 [12] [µM]
,"COc1ccc(C(=O)c2coc3c2C(=O)C(=O)C(Br)=C3Br)cc1OC [SKC-BF-12, 6,7-Dibromo-3-(3,4-dimethoxy-benzoyl)-benzofuran-4,5-dione]",35,46,36,None of the treatments were found to induce any signs of toxicity,only a slight delay in tumor progression,,,,,,
5,"O=C1C(=O)c2c(C(=O)c3ccc(Cl)c(Cl)c3)coc2C(Cl)=C1Cl [SKI 417516, 6,7-dichloro-3-(3,4-dichlorobenzoyl)benzofuran-4,5-dione]",,,,,,active against all cell lines of our panel except Meso47,,,,,
,"COc1cc(C(=O)c2coc3c2C(=O)C(=O)C(Br)=C3Br)cc(OC)c1OC [SKC-BF-13, 6,7-Dibromo-3-(3,4,5-trimethoxy-benzoyl)-benzofuran-4,5-dione]",32,38,,none of the treatments induced any sign of toxicity,,,32,no loss of weight,3,< 10,5.2
